Results: PMC11359809, “Probing the molecular basis for signal transduction through the Zinc-Activated Channel (ZAC)” (Biochemical pharmacology, 2021)

Tests used:
m5-HT3A/ZAC = biological target: T1, m5-HT3A/ZAC (Mus musculus / Homo sapiens, UniProt P23979); experiment: TEVC in oocytes expressing m5-HT3A/ZAC chimera; assay type: cell-based; settings: pH 4.5; n = 4
T1 sequence (P23979 24-246): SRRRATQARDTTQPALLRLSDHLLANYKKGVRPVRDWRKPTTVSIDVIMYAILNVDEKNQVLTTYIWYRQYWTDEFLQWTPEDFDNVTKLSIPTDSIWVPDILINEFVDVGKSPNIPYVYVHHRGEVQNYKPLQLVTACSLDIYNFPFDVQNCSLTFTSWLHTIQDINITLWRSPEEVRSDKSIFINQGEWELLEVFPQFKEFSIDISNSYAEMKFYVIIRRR
T1 sequence (Q401N2 231-412 partner): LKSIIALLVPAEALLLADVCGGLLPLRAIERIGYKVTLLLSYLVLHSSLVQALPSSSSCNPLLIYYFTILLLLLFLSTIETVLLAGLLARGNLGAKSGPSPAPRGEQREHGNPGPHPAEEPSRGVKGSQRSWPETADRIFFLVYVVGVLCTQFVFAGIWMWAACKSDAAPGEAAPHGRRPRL
Text: (§1) The construction of the ZAC-pUNIV plasmid (encoding for the human WT ZAC that contains a Thr in position 128) has been described previously. The m5-HT3A and hα1 GlyR cDNAs were subcloned from their original vectors into pUNIV (Addgene, Watertown, MA) using NheI and EcoRI as restriction enzymes. […] The C-terminus modifications in these four chimeras were introduced in their cDNAs in the same way. Point mutations were introduced in cDNAs by use of the QuikChange mutagenesis kit (Stratagene, San Diego, CA). The validity and absence of unwanted mutations in the constructed cDNAs was verified by DNA sequencing (Macrogen Europe, Amsterdam, The Netherlands).
(§2) All cDNAs used for cRNA synthesis were inserted in the pUNIV vector. The cDNAs were linearized and subsequently transcribed and capped using the mMessage mMachine T7 RNA transcription kit (Ambion, Waltham, MA). […] Oocytes were incubated in a sterile modified Barth’s solution [88 mM NaCl, 1 mM KCl, 15 mM HEPES (pH 7.5), 2.4 mM NaHCO3, 0.41 mM CaCl2, 0.82 mM MgSO4, 0.3 mM Ca(NO3)2, 100 U/ml penicillin and 100 μg/ml streptomycin] at 16–18 °C. Based on experience gained with WT ZAC in a recent study, all TEVC recordings were performed two days after cRNA injection.
(§3) On the day of the TEVC recording, all compound dilutions were prepared in a saline solution [115 mM NaCl, 2.5 mM KCl, 10 mM MOPS (pH 7.5), 1.8 mM CaCl2, 0.1 mM MgCl2], and pH was adjusted to 7.5 (if needed). Oocytes were placed in a recording chamber continuously perfused with this saline solution, and the compounds were applied in the perfusate. Both voltage and current electrodes were agar-plugged with 3 M KCl with a resistance of 0.2–2.0 MΩ. Oocytes were voltage-clamped at −50 mV (except in the studies of the chimeras and their parent receptors where they were clamped at −60 mV, section 3.1), by a Gene Clamp 500B amplifier, and current signals were digitized by a Digidata 1322A (both from Axon Instruments, Union City, CA). Currents were recorded using pCLAMP 10 (Molecular Devices, Sunnyvale, CA). The recordings were performed at room temperature.
(§4) In all recordings, compounds or compound combinations were applied in the bath until the peak current decayed to a steady state (up to 30 s). […] The antagonist properties of compounds were determined by pre-application of the compound to the perfusate for 30 s followed by co-application of the compound and the agonist. In all recordings, washes of 1–5 min were executed between the ligand applications, the length of the washes depending on the agonist concentrations used and on the return to baseline current amplitude.
(§5) Analysis of the data from the TEVC recordings were performed using Clampfit software version 10.5 (Molecular Devices, Crawley, UK) and GraphPad Prism version 7.0c (GraphPad Software, La Jolla, CA). Unless otherwise stated, the inward currents induced by agonists in oocytes were normalized to the maximal response elicited by a specific agonist (agonist Imax) on each oocyte. Concentration-response and concentration-inhibition curves were fitted in GraphPad Prism by nonlinear regression using the equation for sigmoidal dose-response with variable slope. Each data point represents the mean ± S.E.M. value of recordings performed on at least five oocytes in total from at least two different batches. For the data where statistical analysis was performed, a one-way ANOVA was used. The null hypothesis was rejected at P < 0.05, and the differences between the means were analyzed by Tukey’s multiple comparisons test.

ZAC/hα1-Gly = experiment: TEVC in oocytes expressing ZAC/hα1-Gly chimera; assay type: cell-based, human
Description: (§6) The recordings were performed at room temperature.
as §5
(§7) Initially, we constructed four chimeric subunits fusing the ZAC ECD or TMD-ICD with the complementary domains from either the m5-HT3A or the hα1 GlyR subunit: ZAC/m5-HT3A, m5-HT3A/ZAC, ZAC/hα1-Gly and hα1-Gly/ZAC (Fig. 1A). […] (Fig. 1A).

ZAC/m5-HT3A = experiment: TEVC in oocytes expressing ZAC/m5-HT3A chimera; assay type: cell-based, mouse/human; settings: pH 4.5; n = 5
Description: as §6, §5, §7

ZAC^D116A/DH8A/H210A = biological target: T2, ZAC^D116A/DH8A/H210A (Homo sapiens, UniProt Q401N2, A152T/D140A/D142A/H144A); experiment: TEVC in oocytes, Cluster 1 triple mutant; assay type: cell-based; settings: pH 4.0
T2 construct: expressed in transfected cells; host or cells: Xenopus oocytes injected with cRNA (pUNIV vector)
Description: as §6
as §5, with “For the data where statistical analysis was performed, a one-way ANOVA was used.” left out
(§8) The putative involvement of candidate residues in Clusters 1, 2, 3 and 4 in Zn^2+ binding to ZAC was investigated in by an elaborate alanine mutagenesis scanning. […] The determined IpH 4.0 value was used in part as a control and in part to enable the distinction of ZAC mutants non-responsive to Zn^2+ due to elimination of their ability to bind the metal ion from those where the mutation had eliminated cell surface expression and/or disrupted overall functionality of the receptor complex. […]

ZAC^H210A = biological target: T3, ZAC^H210A (Homo sapiens, UniProt Q401N2, A152T/H144A); experiment: TEVC in oocytes, His120 Ala mutant; assay type: cell-based; settings: pH 4.0
T3 construct: expressed in transfected cells; host or cells: Xenopus oocytes injected with cRNA (pUNIV vector)
Description: as §6
as §5, with “For the data where statistical analysis was performed, a one-way ANOVA was used.” left out
as §8

[1] = biological target: T4, ZAC^E24A/E89A/D105A/D108A/E130A (Homo sapiens, UniProt Q401N2, A152T/D129A/D132A/E113A/E154A/E48A); experiment: TEVC in oocytes, Cluster 3 quintuple mutant; assay type: cell-based; settings: H^+ pH 4.0; Zn^2+ 10 mM; data not shown
T4 construct: expressed in transfected cells; host or cells: Xenopus oocytes injected with cRNA (pUNIV vector)
Description: as §6
as §5, with “For the data where statistical analysis was performed, a one-way ANOVA was used.” left out
as §8

hα1-Gly/ZAC = experiment: TEVC in oocytes expressing hα1-Gly/ZAC chimera; assay type: cell-based, human; settings: pH 4.5; n = 5
Description: as §6, §5, §7

ZAC/m5-HT3A-II = experiment: TEVC in oocytes expressing ZAC/m5-HT3A-II chimera; assay type: cell-based, mouse/human; settings: Zn^2+ 10 mM; H^+ pH 4.0; data not shown
Description: as §6

[2] = biological target: T5, ZAC^E136A/H139A/D143A/H144A (Homo sapiens, UniProt Q401N2, A152T/D167A/E160A/H163A/H168A); experiment: TEVC in oocytes, Cluster 2 quadruple mutant; assay type: cell-based; settings: Zn^2+ 10 mM; H^+ pH 4.0; data not shown
T5 construct: expressed in transfected cells; host or cells: Xenopus oocytes injected with cRNA (pUNIV vector)
Description: as §6
as §5, with “For the data where statistical analysis was performed, a one-way ANOVA was used.” left out
as §8

WT hα1 GlyR = biological target: T6, WT hα1 GlyR (Homo sapiens, UniProt P23415); assay type: cell-based
T6 construct: expressed in transfected cells; host or cells: Xenopus oocytes injected with cRNA (pUNIV vector)
T6 sequence (P23415 29-457): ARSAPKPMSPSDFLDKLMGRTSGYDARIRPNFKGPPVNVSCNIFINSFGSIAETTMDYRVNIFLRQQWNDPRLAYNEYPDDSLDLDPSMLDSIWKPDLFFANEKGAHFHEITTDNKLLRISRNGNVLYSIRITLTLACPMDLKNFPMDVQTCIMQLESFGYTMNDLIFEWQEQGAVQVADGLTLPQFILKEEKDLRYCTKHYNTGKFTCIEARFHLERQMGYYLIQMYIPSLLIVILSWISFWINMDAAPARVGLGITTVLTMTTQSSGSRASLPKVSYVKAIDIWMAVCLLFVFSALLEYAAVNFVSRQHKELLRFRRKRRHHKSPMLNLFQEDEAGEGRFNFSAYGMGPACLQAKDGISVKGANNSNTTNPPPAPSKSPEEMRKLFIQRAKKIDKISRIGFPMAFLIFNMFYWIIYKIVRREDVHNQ
Text: as §1, §2, §3, §4
as §5, with “For the data where statistical analysis was performed, a one-way ANOVA was used.” left out

WT ZAC = biological target: T7, WT ZAC (Homo sapiens, UniProt Q401N2, A152T); experiment: TEVC in Xenopus oocytes expressing WT ZAC; assay type: cell-based; settings: PTX at concentrations up to 100 μM; Zn^2+ 1 mM
T7 construct: expressed in transfected cells; host or cells: Xenopus oocytes injected with cRNA (pUNIV vector)
T7 sequence (Q401N2 26-412 A152T): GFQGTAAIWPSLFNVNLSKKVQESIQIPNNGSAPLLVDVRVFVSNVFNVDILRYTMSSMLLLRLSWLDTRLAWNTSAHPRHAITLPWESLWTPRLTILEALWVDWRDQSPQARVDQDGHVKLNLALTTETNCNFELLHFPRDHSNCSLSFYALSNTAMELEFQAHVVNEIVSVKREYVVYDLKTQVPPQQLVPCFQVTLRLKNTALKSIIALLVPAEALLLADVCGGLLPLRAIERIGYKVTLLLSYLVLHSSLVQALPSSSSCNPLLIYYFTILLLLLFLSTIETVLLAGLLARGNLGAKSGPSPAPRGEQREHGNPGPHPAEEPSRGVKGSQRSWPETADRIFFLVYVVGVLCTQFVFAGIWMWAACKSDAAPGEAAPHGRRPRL
Description: as §6, §5

T2 sequence (Q401N2 26-412 D140A/D142A/H144A/A152T): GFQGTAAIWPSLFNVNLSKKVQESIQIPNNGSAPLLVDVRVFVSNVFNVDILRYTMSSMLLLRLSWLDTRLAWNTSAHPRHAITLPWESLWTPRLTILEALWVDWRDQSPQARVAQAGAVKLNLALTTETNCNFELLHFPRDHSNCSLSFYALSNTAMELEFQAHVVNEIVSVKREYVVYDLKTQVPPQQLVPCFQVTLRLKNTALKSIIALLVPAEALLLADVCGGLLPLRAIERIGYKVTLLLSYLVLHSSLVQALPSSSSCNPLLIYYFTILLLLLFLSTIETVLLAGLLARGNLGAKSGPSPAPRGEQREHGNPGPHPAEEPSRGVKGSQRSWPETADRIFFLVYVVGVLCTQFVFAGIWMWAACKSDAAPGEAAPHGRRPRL
T5 sequence (Q401N2 26-412 A152T/E160A/H163A/D167A/H168A): as the sequence (Q401N2 26-412 D140A/D142A/H144A/A152T) above, with A115D, A117D, A119H, E135A, H138A, D142A, H143A counted along it
T3 sequence (Q401N2 26-412 H144A/A152T): as the sequence (Q401N2 26-412 D140A/D142A/H144A/A152T) above, with A115D, A117D counted along it
T4 sequence (Q401N2 26-412 E48A/E113A/D129A/D132A/A152T/E154A): as the sequence (Q401N2 26-412 D140A/D142A/H144A/A152T) above, with E23A, E88A, D104A, D107A, A115D, A117D, A119H, E129A counted along it

Compound	IpH 4.5 ± S.E.M. (m5-HT3A/ZAC) [μA]	agonist-evoked current (ZAC/hα1-Gly; pH 4.5)	IpH 4.5 ± S.E.M. (ZAC/m5-HT3A) [μA]	IpH 4.0 range (ZAC^D116A/DH8A/H210A)	IpH 4.0 (ZAC^H210A)	agonist responsiveness [1]	IpH 4.5 ± S.E.M. (hα1-Gly/ZAC) [μA]	agonist-evoked current (ZAC/m5-HT3A-II)	agonist responsiveness [2]	current during 30-s preincubation of antagonist (ZAC/hα1-Gly; PTX preincubation)	IC50 (ZAC/hα1-Gly; inhibition of Zn^2+ EC90 (10 μM)-induced currents, read-out: estimated IC50) [nM]	current during 30-s preincubation of antagonist (WT hα1 GlyR; PTX preincubation)	IC50 (WT hα1 GlyR; inhibition of Gly EC90 (100 μM)-elicited responses, read-out: estimated IC50) [nM]	inhibition of Zn^2+ EC90-mediated signalling (WT ZAC)
[H+] [H^+]	−0.0027 ± 0.0007	robust currents	−0.0033 ± 0.0003	40–100 nA	30–110 nA	non-responsive	−0.0045 ± 0.0019	did not evoke significant currents	non-responsive	–	–	–	–	–
picrotoxin [PTX]	–	–	–	–	–	–	–	–	–	substantial outward currents	> 1000	no such outward currents	< 1000	did not inhibit
